From ChEMBL document CHEMBL1142595, “Spirolides isolated from Danish strains of the toxigenic dinoflagellate Alexandrium ostenfeldii” (J Nat Prod, 2006)

System: Mus musculus
Assay: Toxicity in ip dosed mouse
Format: organism-based
Details: in vivo

Structure (SMILES): C=C1CCCC2=NCC(C)C(C)CC23CCC(C2C=C(C)C(=O)O2)=C(C)C3/C=C(\C)C(O)CC2CCC3(CCC4(OC(CCC4O)C1)O3)O2 (stereo unspecified)
- MLD: 0.03 mg/kg
